Source: US20140065070A1, “METHODS OF PREPARING TRIAZOLE-CONTAINING RADIOIODINATED COMPOUNDS” (MCMASTER UNIVERSITY, priority 2012, published 2014)

Key:
[1] = Stability of I-TAAG construct in solution; assay type: physicochemical; details: 48 hours
Experimental: Reactions were complete within 10 min and the product was isolated by solid-phase extraction or semi-preparative HPLC.

[2] = Biodistribution study of 123I-TAAG in normal Balb/c mice; assay type: in vivo; details: tail vein injection
From the text: Animals were anesthetized with 3% isoflurane and euthanized by cervical dislocation. Blood, heart, lungs, liver, spleen, kidneys, adrenals, stomach (with contents), large intestine and caecum (with contents) and small intestines (with contents), bladder and urine, thyroid/trachea, bone, skeletal muscle and tail were collected, weighed and counted in a Perkin Elmer Wizard 1470 Automatic Gamma Counter. Decay correction was used to normalize organ activity measurements to time of dose preparation for data calculations with respect to injected dose (i.e. % ID/g).

[3] = Log D pH 7.4 measurement (n-octanol/PBS); assay type: physicochemical; details: n-octanol/PBS pH 7.4
Experimental: The samples were vortexed for 20 min and centrifuged at 6000 rpm for 5 min. Aliquots (0.1 mL) were subsequently removed from both the aqueous and the organic n-octanol layers and counted separately in a γ counter (Wallac Wizard 1470 automatic γ counter). Measurements represent three separate experiments with four extractions in each set for a total of twelve data points. The partition coefficients were then calculated using the equation D=(activity concentration in n-octanol)/(activity concentration in aqueous layer).

[4] = test system: LNCaP xenografts; test: Biodistribution study of 123I-TAAG-PSMA in NCr nude mice bearing LNCaP xenografts; assay type: in vivo, NCr nude mice
Experimental: LNCaP cells derived from lymph node metastases of human prostate carcinoma were purchased from ATCC. Cells were propagated using RPMI 1640 media supplemented with 10% Fetal Bovine Serum, 4 mM L-glutamine, 1 mM Sodium Pyruvate, 10 mM Hepes, 1% Penicillin Streptomycin (Invitrogen, Mississauga ON) and 0.25% D-glucose (Sigma, Oakville ON) and grown at 37° C. and 5% CO2. NCr nude homo male mice ordered from Taconic (Germantown, N.Y., USA) were injected with 2.0×10^6 LNCaP cells in 100 μL Matrigel/DPBS (1:1) subcutaneously into the right flank at 7 to 8 weeks of age. […] Animals were anesthetized with 3% isoflurane and euthanized by cervical dislocation. Blood, bone, liver, gall bladder, spleen, small intestine (with contents), large intestine and caecum (with contents), bladder, urine, skeletal muscle, brain, LNCaP tumour, heart, lung, salivary glands, kidneys, stomach (with contents), prostate, thyroid/trachea, adrenals, esophagus, tail, adipose and testes were collected, weighed and counted in a Perkin Elmer Wizard 1470 Automatic Gamma Counter. Decay correction was used to normalize organ activity measurements to time of dose preparation for data calculations with respect to injected dose (i.e. % ID/g).

[5] = test system: LNCaP tumours; test: SPECT-CT imaging study of 123I-TAAG-PSMA; assay type: in vivo, NCr mice
Experimental: Prior to imaging, mice were anaesthetized with 2.5% isoflurane and maintained under same conditions for the length of the SPECT and CT scans. Imaging was conducted on the first mouse at 2 and 6 hours post injection and on the second mouse at 4 and 23 hours post injection. At each time point, multiple SPECT acquisitions were completed for 32 frames at 10 sec/frame for the 2 hour time point, 20 sec/frame for the 4 and 6 hour time point or 30 sec/frame for the 23 hour time point on a GammaMedica Ideas X-SPECT system (North Ridge, Calif.). CT acquisitions consisted of 512 projections acquired over 360° with 75 Kvp, 205 mA cone beam CT system. Cobra Exxim software (Feldkamp filtered backprojection cone beam reconstruction software) was used to reconstruct the images at a voxel size of 155 microns and a matrix size of 512^3. An OS-EM interactive reconstructed method (2 iterations/8 subsets) was used to reconstruct the SPECT data which was fused to the CT data using in-house software. AMIDE software was used to analyze the images.

[6] = at pH 7.4; comparison value; cited from earlier work
[7] = 1 hr + block (PMPA 10 mg/kg), NCr nude mice bearing LNCaP xenografts, mean ± SEM
[8] = male, NCr nude, mouse, in vivo, 1 h
[9] = male, NCr nude, mouse, in vivo, 23 h
[10] = male, NCr nude, mouse, in vivo, 24 h

With `O=C(O)Cn1cc(I)nn1` [^123I-TAAG, 2-(4-iodo-1H-1,2,3-triazol-1-yl)acetic acid] the stability in solution [1] was “stable over 48 hours in solution with no signs of deiodination”, the “clearance from organs (biodistribution)” value [2] was “clears all major organs quickly and collects in the bladder within 30 minutes” and the logD [3] was -2.58 ± 0.01.
With `O=C(O)CC[C@H](NC(=O)N[C@@H](CCCCNC(=O)Cn1cc(I)nn1)C(=O)O)C(=O)O` [^123I-TAAG-PSMA, (S)-2-(3-((S)-1-carboxy-5-(2-(4-iodo-1H-1,2,3-triazol-1-yl)acetamido)pentyl)ureido)pentanedioic acid] the “Tissue distribution, Adipose” value [4, 7] was 0.35 ± 0.21 % ID/g, the “Tissue distribution, Adrenals” value [4, 7] was 3.34 ± 1.49 % ID/g and the “Tissue distribution, Bladder” value [4, 7] was 10.78 ± 4.16 % ID/g. The “Tissue distribution, Blood” value [4, 7] was 0.32 ± 0.06 % ID/g, the “Tissue distribution, Bone” value [4, 7] was 0.26 ± 0.02 % ID/g and the “Tissue distribution, Brain” value [4, 7] was 0.05 ± 0.02 % ID/g. For the same compound, the “Tissue distribution, Esophagus” value [4, 7] was 0.32 ± 0.04 % ID/g, the “Tissue distribution, Gall Bladder” value [4, 7] was 1.32 ± 0.53 % ID/g and the “Tissue distribution, Heart” value [4, 7] was 0.15 ± 0.04 % ID/g. For the same compound, the “Tissue distribution, Kidneys” value [4, 7] was 9.57 ± 5.17 % ID/g, the “Tissue distribution, Large Intestine + Caecum” value [4, 7] was 0.12 ± 0.03 % ID/g and the “Tissue distribution, Liver” value [4, 7] was 2.25 ± 0.29 % ID/g. The “Tissue distribution, Lung” value [4, 7] was 0.36 ± 0.08 % ID/g, the “Tissue distribution, Prostate” value [4, 7] was 3.85 ± 2.91 % ID/g and the “Tissue distribution, Salivary Glands” value [4, 7] was 0.52 ± 0.12 % ID/g. The “Tissue distribution, Skeletal Muscle” value [4, 7] was 0.19 ± 0.03 % ID/g, the “Tissue distribution, Small Intestine” value [4, 7] was 0.30 ± 0.09 % ID/g and the “Tissue distribution, Spleen” value [4, 7] was 0.13 ± 0.03 % ID/g. The “Tissue distribution, Stomach” value [4, 7] was 0.49 ± 0.07 % ID/g, the “Tissue distribution, Testes” value [4, 7] was 1.16 ± 1.05 % ID/g and the “Tissue distribution, Thyroid/Trachea” value [4, 7] was 0.62 ± 0.24 % ID/g. The “Tissue distribution, Urine” value [4, 7] was 486.70 ± 163.60 % ID/g, the “Tissue distribution, Adipose” value [4, 8] was 1.73 ± 0.26 % ID/g and the “Tissue distribution, Adrenals” value [4, 8] was 8.45 ± 2.13 % ID/g. The “Tissue distribution, Bladder” value [4, 8] was 1.78 ± 0.23 % ID/g, the “Tissue distribution, Blood” value [4, 8] was 0.81 ± 0.07 % ID/g and the “Tissue distribution, Bone” value [4, 8] was 0.41 ± 0.07 % ID/g. The “Tissue distribution, Brain” value [4, 8] was 0.06 ± 0.01 % ID/g, the “Tissue distribution, Esophagus” value [4, 8] was 1.3 ± 0.26 % ID/g and the “Tissue distribution, Gall Bladder” value [4, 8] was 1.28 ± 0.26 % ID/g. For the same compound, the “Tissue distribution, Heart” value [4, 8] was 0.85 ± 0.29 % ID/g, the “Tissue distribution, Kidneys” value [4, 8] was 137.54 ± 11.43 % ID/g and the “Tissue distribution, Large Intestine + Caecum” value [4, 8] was 0.27 ± 0.06 % ID/g. For the same compound, the “Tissue distribution, Liver” value [4, 8] was 2.32 ± 0.28 % ID/g, the “Tissue distribution, Lung” value [4, 8] was 2.58 ± 0.46 % ID/g and the “Tissue distribution, Prostate” value [4, 8] was 1.89 ± 0.62 % ID/g. For the same compound, the “Tissue distribution, Salivary Glands” value [4, 8] was 2.97 ± 0.95 % ID/g, the “Tissue distribution, Skeletal Muscle” value [4, 8] was 0.33 ± 0.04 % ID/g and the “Tissue distribution, Small Intestine” value [4, 8] was 0.64 ± 0.13 % ID/g. For the same compound, the “Tissue distribution, Spleen” value [4, 8] was 4.98 ± 1.31 % ID/g, the “Tissue distribution, Stomach” value [4, 8] was 0.90 ± 0.07 % ID/g and the “Tissue distribution, Testes” value [4, 8] was 0.69 ± 0.10 % ID/g. For the same compound, the “Tissue distribution, Thyroid/Trachea” value [4, 8] was 1.46 ± 0.3 % ID/g, the “Tissue distribution, Urine” value [4, 8] was 43.99 ± 5.54 % ID/g and the “Tumor to tissue ratio, Tumour/blood” value [4, 8] was 28.22 ± 7.12. For the same compound, the “Tumor to tissue ratio, Tumour/skeletal muscle” value [4, 8] was 78.06 ± 30.62, the “activity retained in the tumour” value [4, 9] was 15 % ID/g and the “remaining activity in the thyroid” value [4, 9] was “about 10 % ID/g”. For the same compound, the “Tissue distribution, Adipose” value [4, 10] was 0.02 ± 0.01 % ID/g, the “Tissue distribution, Adrenals” value [4, 10] was 0.33 ± 0.07 % ID/g and the “Tissue distribution, Bladder” value [4, 10] was 0.08 ± 0.02 % ID/g. For the same compound, the “Tissue distribution, Blood” value [4, 10] was 0.01 ± 0.00 % ID/g, the “Tissue distribution, Bone” value [4, 10] was 0.04 ± 0.01 % ID/g and the “Tissue distribution, Brain” value [4, 10] was 0.03 ± 0.00 % ID/g. For the same compound, the “Tissue distribution, Esophagus” value [4, 10] was 0.07 ± 0.01 % ID/g, the “Tissue distribution, Gall Bladder” value [4, 10] was 0.19 ± 0.08 % ID/g and the “Tissue distribution, Heart” value [4, 10] was 0.01 ± 0.00 % ID/g. For the same compound, the “Tissue distribution, Kidneys” value [4, 10] was 0.99 ± 0.27 % ID/g, the “Tissue distribution, LNCap Tumour” value [4, 10] was 15.31 ± 4.23 % ID/g and the “Tissue distribution, Large Intestine + Caecum” value [4, 10] was 0.04 ± 0.01 % ID/g. For the same compound, the “Tissue distribution, Liver” value [4, 10] was 0.03 ± 0.01 % ID/g, the “Tissue distribution, Lung” value [4, 10] was 0.01 ± 0.00 % ID/g and the “Tissue distribution, Prostate” value [4, 10] was 0.09 ± 0.03 % ID/g. For the same compound, the “Tissue distribution, Salivary Glands” value [4, 10] was 0.05 ± 0.01 % ID/g, the “Tissue distribution, Skeletal Muscle” value [4, 10] was 0.01 ± 0.00 % ID/g and the “Tissue distribution, Small Intestine” value [4, 10] was 0.02 ± 0.01 % ID/g. The “Tissue distribution, Spleen” value [4, 10] was 0.03 ± 0.00 % ID/g, the “Tissue distribution, Stomach” value [4, 10] was 0.07 ± 0.03 % ID/g and the “Tissue distribution, Testes” value [4, 10] was 0.01 ± 0.00 % ID/g. For the same compound, the “Tissue distribution, Thyroid/Trachea” value [4, 10] was 9.36 ± 1.05 % ID/g, the “Tissue distribution, Urine” value [4, 10] was 1.04 ± 0.39 % ID/g and the “Tumor to tissue ratio, Tumour/blood” value [4, 10] was 1867 ± 499.72. For the same compound, the “Tumor to tissue ratio, Tumour/skeletal muscle” value [4, 10] was 1531 ± 422.74, the logD [3] was -3.23 ± 0.05 and the SPECT-CT image uptake ([5]; 23-24 hours post injection) was “the activity was found only in the tumour and in the thyroid”. The SPECT-CT image uptake ([5]; two hours post injection) was “uptake of the agent in the kidneys, bladder and a small amount in the tumour”.
In the case of `O=C(O)c1ccc(I)cc1` [p-iodobenzoic acid], the “log D” value [6] is listed as 0.07.
